Data on one molecule can be found in patent US9364479B2, “Use of a receptor-type kinase modulator for treating polycystic kidney disease” (SYMPHONY EVOLUTION, INC., priority 2010, dated 2016).

Marks after values point to notes of the source that are not given here.

The target in one assay is KDR (Homo sapiens, UniProt P35968). Put plainly: Luciferase-coupled chemiluminescence kinase assay. More on the design: residues D807-V1356 of human KDR, Proqinase; purchased Proqinase. In kind it is biochemical. To be noted: ATP at Km.
A further assay addresses T1, Src (Homo sapiens, UniProt P12931).
T1 construct: His (N); purchased Upstate Biotech
Put plainly: Chemiluminescent kinase assay. The assay is classed as biochemical. The conditions noted are these: ATP at Km.

The next assay has as its system Serotonin, Non-selective. Kind of assay: NovaScreen assay. In kind it is binding.
The subject of assay [1] is PC-3 human tumor xenograft. Put plainly: PC-3 xenograft, tumor growth. In kind it is in vivo. The conditions noted are these: Mus musculus; qd × 28. The protocol:
(§1) The response of tumors to treatment was determined by comparing the mean tumor weight of the treatment group with the appropriate control group. Percentage inhibition of tumor growth was determined with the following formula: Percentage inhibition=100×[1−(Xf−Xo)/(Yf−Yo)], where Xf and Yf are the mean tumor weights of the treatment and control groups, respectively, on day f, and Xo and Yo are the mean tumor weights of treatment and control groups respectively, on day zero (staged tumor weights after grouping)

Assay [2] deals with T2, Norepinephrine Transporter (Homo sapiens, UniProt P23975).
T2 construct: NovaScreen
Put plainly: NovaScreen assay. To be noted: read-out: Inhibition, 10 μM XL-647. In kind it is binding.

For assay [3], the system named is Calu-6 human tumor xenograft. Kind of assay: Calu-6 xenograft, tumor growth. In kind it is in vivo. The conditions noted are these: Mus musculus, qd × 28. The protocol:
as §1

The subject of assay [4] is Phospho ERK Thr203/Tyr204. Kind of assay: Immunohistochemical analysis of phosphorylation in H1975 xenografts. The conditions noted are these: 14-day dosing. In kind it is in vivo, mouse. The protocol: (§2) For immunohistochemical analysis of H1975, MDA-MB-231 and other xenografts, tumors were excised after euthanasia and fixed in zinc fixative (BD Biosciences) for 48 h before being processed into paraffin blocks. Serial sections at 5 μm were obtained from the area of largest possible surface for each tumor and stained using standard methods. The following antibodies were used: Ki67 (SP6; Labvision), CD31 (MECA.32; BD Biosciences), pERK^Thr202/Tyr204 (phospho-p44/42 mitogen-activated protein kinase; Cell Signaling Technology), pAKT^Ser473 (Cell Signaling Technology), and pEGFR^Tyr1068 (Cell Signaling Technology). For immunofluorescent staining, sections were then incubated with Alexa 594-conjugated goat anti-rabbit secondary antibody (Invitrogen) and mounted in Fluorescent Mounting Medium (DAKO) containing 4′,6-diamidino-2-phenylindole (Molecular Probes) as a nuclear counterstain. Fluorescent staining was visualized using a Zeiss Axiolmager and digitally captured using a Zeiss high-resolution camera coupled to AxioVision image analysis software. Two to three nonoverlapping representative fields were captured at ×200 or ×400 magnification depending on histologic readout and quantified using the integrated morphometric analysis functions in Metamorph software (Universal Imaging Corp.). Apoptotic cells were detected using terminal deoxynucleotidyl transferase-mediated dUTP nick end labeling in situ cell death detection kit according to the manufacturer's instructions (Roche Diagnostics GmbH).
CD31-positive tumor vessels, Ki67-positive proliferating cells, and pERK staining in each tumor section were identified and quantified using the integrated morphometric analysis functions in the ACIS automatic cellular imaging system (Clarient, Inc.) and reviewed by a blinded observer. Number of CD31-positive vessels were identified across 5 to 10 randomly chosen fields of equal size at ×100 magnification in viable tumor tissue and calculated as number of vessels per square millimeter for each tumor, averaged for each treatment group, and compared with vehicle-treated controls. Percentage Ki67-positive cells were calculated as the ratio between Ki67-positive cells divided by the total number of cells identified across 5 to 10 randomly chosen fields of equal size in viable tumor tissue. The results for each tumor and treatment group were averaged and compared with vehicle-treated controls. The level of pERK staining was determined as described above and calculated as the ratio of antibody staining divided by the total number of cells identified, averaged for each treatment group, and compared with vehicle-treated controls.
Results are presented as mean±SD or SE as indicated for each graph or table. For IC50 comparison in the A431 cell viability experiment, two sample Student's t tests were applied to determine P values for each IC50 pair assuming that the random fluctuations of replicates around the dose-response curve are distributed [log]normally with the individual replicates used as the ‘sample size’ for the t test (nine point dose response done in triplicate). For statistical analysis of immunohistochemical results from in vivo studies, two-tailed Student's t test analysis and Bonferroni correction were done to identify significant differences compared with vehicle control group (multiple use of a single vehicle control group) with a cumulative minimal requirement of P<0.05.

The target of another assay is T3, Phospho-EGFR Tyr1068 (Homo sapiens, UniProt P00533, L858R/T790M).
T3 construct: host or cells: H1975 (cultured cells; s.c. xenografts in mice)
The description is as above. To be noted: 14-day dosing. The assay is classed as in vivo, mouse. The protocol:
as §2
Results are presented as mean±SD or SE as indicated for each graph or table. For IC50 comparison in the A431 cell viability experiment, two sample Student's t tests were applied to determine P values for each IC50 pair assuming that the random fluctuations of replicates around the dose-response curve are distributed [log]normally with the individual replicates used as the ‘sample size’ for the t test (nine point dose response done in triplicate).

T1 sequence (P12931 whole entry): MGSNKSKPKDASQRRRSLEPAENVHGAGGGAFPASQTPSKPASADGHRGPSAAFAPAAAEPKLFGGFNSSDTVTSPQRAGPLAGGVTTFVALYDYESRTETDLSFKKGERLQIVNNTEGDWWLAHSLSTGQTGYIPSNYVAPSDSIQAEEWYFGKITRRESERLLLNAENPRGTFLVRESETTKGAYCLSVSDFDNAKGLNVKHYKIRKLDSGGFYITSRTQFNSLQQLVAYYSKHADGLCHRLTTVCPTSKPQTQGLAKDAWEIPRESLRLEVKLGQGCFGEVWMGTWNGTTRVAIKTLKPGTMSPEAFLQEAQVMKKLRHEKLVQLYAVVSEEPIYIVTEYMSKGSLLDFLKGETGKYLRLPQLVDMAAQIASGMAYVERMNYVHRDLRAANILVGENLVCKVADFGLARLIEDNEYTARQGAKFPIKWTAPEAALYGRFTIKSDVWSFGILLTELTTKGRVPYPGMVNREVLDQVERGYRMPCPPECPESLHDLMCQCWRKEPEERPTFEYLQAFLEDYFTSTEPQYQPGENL
T2 sequence (P23975 whole entry, species assumed): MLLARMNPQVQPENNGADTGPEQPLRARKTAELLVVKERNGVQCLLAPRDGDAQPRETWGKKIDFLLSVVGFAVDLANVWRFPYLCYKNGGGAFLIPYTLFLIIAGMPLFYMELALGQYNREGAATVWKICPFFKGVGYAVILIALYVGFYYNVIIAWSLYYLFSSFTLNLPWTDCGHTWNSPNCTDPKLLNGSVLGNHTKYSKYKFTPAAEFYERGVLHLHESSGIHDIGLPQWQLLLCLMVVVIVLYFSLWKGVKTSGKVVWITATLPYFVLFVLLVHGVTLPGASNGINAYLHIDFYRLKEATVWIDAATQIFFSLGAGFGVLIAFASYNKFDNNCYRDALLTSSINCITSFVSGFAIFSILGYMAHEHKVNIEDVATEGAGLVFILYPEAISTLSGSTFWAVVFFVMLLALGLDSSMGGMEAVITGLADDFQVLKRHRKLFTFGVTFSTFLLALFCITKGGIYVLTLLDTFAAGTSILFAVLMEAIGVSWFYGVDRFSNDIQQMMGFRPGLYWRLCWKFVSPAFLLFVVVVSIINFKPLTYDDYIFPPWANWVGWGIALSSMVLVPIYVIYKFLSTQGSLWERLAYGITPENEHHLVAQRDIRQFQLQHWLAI
Chain of KDR (P35968 807-1356): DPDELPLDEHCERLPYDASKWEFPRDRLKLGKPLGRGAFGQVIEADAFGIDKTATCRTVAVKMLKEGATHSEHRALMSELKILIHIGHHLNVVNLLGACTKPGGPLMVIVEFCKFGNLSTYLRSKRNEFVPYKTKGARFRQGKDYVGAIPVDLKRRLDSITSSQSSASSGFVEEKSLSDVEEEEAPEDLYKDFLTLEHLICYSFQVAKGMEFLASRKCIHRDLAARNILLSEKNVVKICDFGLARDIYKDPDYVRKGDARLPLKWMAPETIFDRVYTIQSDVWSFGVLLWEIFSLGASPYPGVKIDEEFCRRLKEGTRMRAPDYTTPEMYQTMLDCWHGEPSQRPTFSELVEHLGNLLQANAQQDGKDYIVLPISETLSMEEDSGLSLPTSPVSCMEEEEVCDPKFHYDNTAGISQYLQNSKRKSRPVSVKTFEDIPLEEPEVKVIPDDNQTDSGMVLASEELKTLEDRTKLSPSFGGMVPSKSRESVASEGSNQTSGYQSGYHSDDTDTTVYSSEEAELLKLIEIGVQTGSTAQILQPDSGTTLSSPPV
Description for KDR: Dose-response experiments were done using 10 different inhibitor concentrations in 384-well microtiter plates. The ATP concentration used for each assay was equivalent to the Km for each kinase.
A Luciferase-coupled chemiluminescence assay was used to measure EGFR and KDR (VEGFR2) activity. Kinase activity was measured as the percentage of ATP consumed following the kinase reaction using luciferase-luciferin-coupled chemiluminescence. Reactions were conducted in 384-well white, medium-binding microtiter plates (Greiner). […] The reaction mixture was incubated at room temperature for 4 h. Following the kinase reaction, a 20 μL aliquot of Kinase Glo (Promega) was added and luminescence signal was measured using a Victor2 plate reader (Perkin-Elmer). Total ATP consumption was limited to 50%.

One may read the IC50 as the concentration at which inhibition is half-maximal. A low value points to greater potency. A word on the ED50: it is the dose that gives a 50% effect, or the effect in half of the subjects. The low end stands for greater potency, the high end for weaker potency. Broadly, the inhibition is the change of the read-out against control, counted positive when it falls. Consider `COc1cc2c(Nc3ccc(Cl)c(Cl)c3F)ncnc2cc1OC[C@@H]1C[C@@H]2CN(C)C[C@@H]2C1` [XL-647, N-(3,4-dichloro-2-fluorophenyl)-7-({[(3aR,5r,6aS)-2-methyloctahydrocyclopenta[c]pyrrol-5-yl]methyl}oxy)-6-(methyloxy)quinazolin-4-amine], for which the IC50 against KDR amounted to 1.5 ± 0.2 nM; against Src, 10.3 ± 2 nM. Moreover, the “Inhibition, 10 μM XL-647” value in the assay on Serotonin, Non-selective turned out to be 24.52%. In addition, the median effective dose (ED50) came to 34 mg/kg in assay [1] and 16.4 mg/kg in assay [3]. Further, in assay [2], the inhibition at 10 µM was -5.38%. In addition, the results for the “Phospho ERK Thr203/Tyr204 % Cells” value in assay [4] (10 mg/kg), in assay [4] (30 mg/kg) and in assay [4] (100 mg/kg) were 20 ± 4.3%, 13 ± 4.9% and 10 ± 3.7%, respectively. The “Phospho ERK Thr203/Tyr204 % Reduction” value in assay [4] (10 mg/kg) is given as 11.8%; in assay [4] (30 mg/kg), 41.8^a %; in assay [4] (100 mg/kg) it was 57.1^a %. In addition, the “Phospho-EGFR Tyr1068 % Cells” value on Phospho-EGFR Tyr1068 (10 mg/kg) is reported as 14 ± 1.9%; at Phospho-EGFR Tyr1068 (30 mg/kg), 12 ± 1.3%; on Phospho-EGFR Tyr1068 (100 mg/kg) it was 10 ± 1.8%. For the same molecule, the entries for the “Phospho-EGFR Tyr1068 % Reduction” value on Phospho-EGFR Tyr1068 (10 mg/kg), at Phospho-EGFR Tyr1068 (30 mg/kg) and on Phospho-EGFR Tyr1068 (100 mg/kg) were 49.0^a %, 56.1^a % and 63.7^a %, respectively.
